Where “and” joins values, the source holds several entries; their conditions need not be identical. Equal values may be shown once. Read-outs that look alike come from different tables or passages of the source.
Assays:
OCT1 [1] = target: T1, OCT1 (Homo sapiens, UniProt O15245); assay: Flow cytometric ASP+-uptake inhibition, HEK-OCT1; type: cell-based; settings: HEK-OCT1; 1 μM ASP+; ± SEM (N = 3); read-out: IC50, inhibition of ASP+-uptake
T1 construct: containing the full length SLC22A1 cDNA (NM_003057) encoding the human OCT1 protein; expressed in transfected cells
T1 sequence (O15245 1-554): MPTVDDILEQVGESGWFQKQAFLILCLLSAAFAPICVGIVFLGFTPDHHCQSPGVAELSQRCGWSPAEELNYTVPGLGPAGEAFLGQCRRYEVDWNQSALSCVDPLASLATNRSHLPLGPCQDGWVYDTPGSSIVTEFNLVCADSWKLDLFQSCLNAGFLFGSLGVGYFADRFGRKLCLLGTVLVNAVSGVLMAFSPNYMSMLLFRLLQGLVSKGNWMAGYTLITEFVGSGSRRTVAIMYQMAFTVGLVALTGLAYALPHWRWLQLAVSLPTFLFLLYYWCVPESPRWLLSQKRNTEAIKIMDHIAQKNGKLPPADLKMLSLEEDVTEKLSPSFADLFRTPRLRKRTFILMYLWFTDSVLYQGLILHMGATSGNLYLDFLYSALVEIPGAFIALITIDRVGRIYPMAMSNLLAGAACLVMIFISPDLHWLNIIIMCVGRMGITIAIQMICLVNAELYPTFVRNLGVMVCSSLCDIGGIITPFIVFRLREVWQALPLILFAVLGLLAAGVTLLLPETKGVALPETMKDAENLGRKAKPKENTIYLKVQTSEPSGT
Method: (§1) The previously described fluorescent substrate of organic cation transporters, 4-(4-dimethylaminostyryl)-N-methylpyridinium (ASP^+), was used to determine the function of OCT1 and OCT3 by flow cytometry in the absence and the presence of bendamustine and selected bendamustine esters. HEK293 cells expressing the transporter of interest were trypsinized and washed twice with PBS, prior to re-suspension of 0.5 · 10^6 cells in 500 μL of PBS containing 2% (v/v) FCS. The cells were incubated with ASP^+ (100 μM stock solution in PBS containing 10% DMSO) for 5 minutes, allowing for cellular accumulation, and subsequently analyzed with a FACSCalibur flow cytometer. ASP^+ was excited at 488 nm and the fluorescence was measured using a 530/30 nm and a 585/42 band-pass filter. At least 1 · 10^4 single cells were analyzed by appropriate FSC/SSC gating.
(§2) The cells were pre-incubated with the respective test compound at different concentrations at room temperature for 10 minutes. Afterwards, ASP^+ was added to a final concentration of 1 μM, and the samples were incubated at 37°C in the dark for 5 minutes. Subsequently, the cells were washed, re-suspended in ice-cold PBS/FCS and stored on ice in the dark until measurement.
(§3) The normalized mean fluorescence intensities of the OCT expressing cells, set to 100% in the absence of an inhibitor, were calculated by subtracting the mean fluorescence intensity of unspecific ASP^+ uptake into HEK-Co control cells. The normalized fluorescence intensities in the presence of an inhibitor were plotted against the logarithm of the concentrations of the test compounds to calculate IC50 values. The “log (inhibitor) vs. normalized response-variable slope” equation of GraphPad Prism 5.01 was used for this purpose.

OCT3 [2] = target: T2, OCT3 (Homo sapiens, UniProt O75751); assay: Flow cytometric ASP+-uptake inhibition, HEK-OCT3; type: cell-based; settings: HEK-OCT3; 1 μM ASP+; ± SEM (N = 3); read-out: IC50, inhibition of ASP+-uptake
T2 construct: expressed in transfected cells; host or cells: HEK293 (HEK-OCT3)
T2 sequence (O75751 1-556): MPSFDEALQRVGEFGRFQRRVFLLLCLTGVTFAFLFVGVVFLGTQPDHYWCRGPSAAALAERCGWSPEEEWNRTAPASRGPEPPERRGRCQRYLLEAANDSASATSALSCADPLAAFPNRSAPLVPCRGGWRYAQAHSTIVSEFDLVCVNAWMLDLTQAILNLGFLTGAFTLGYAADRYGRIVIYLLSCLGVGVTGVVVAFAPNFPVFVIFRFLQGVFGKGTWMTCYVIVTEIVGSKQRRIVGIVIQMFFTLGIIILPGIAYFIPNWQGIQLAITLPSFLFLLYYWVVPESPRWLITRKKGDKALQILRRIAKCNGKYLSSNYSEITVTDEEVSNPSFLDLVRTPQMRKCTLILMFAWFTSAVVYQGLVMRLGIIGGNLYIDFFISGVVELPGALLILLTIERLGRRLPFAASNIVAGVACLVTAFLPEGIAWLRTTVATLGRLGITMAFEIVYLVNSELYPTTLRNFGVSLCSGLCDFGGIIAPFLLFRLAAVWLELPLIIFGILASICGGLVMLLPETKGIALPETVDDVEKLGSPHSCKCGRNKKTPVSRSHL
Method: as §1, §2, §3

OCT1 [3] = target: T1, OCT1; assay: Confocal laser scanning microscopy of ASP+ uptake, HEK-OCT1; type: cell-based; settings: compound 5 15 μM; TPA 200 μM; ASP+ 1 μM
Method: (§4) HEK-Co, HEK-OCT1 and HEK-OCT3 cells were seeded into 8-well μ-Slides (Ibidi, Munich, Germany) (2 · 10^4 cells/well) and allowed to attach for 48 hours. Prior to the staining procedure, the medium was replaced by PBS and the DNA probe Draq5 (5 μM) (Biostatus, Shepshed, UK) was added to each well. […] Subsequently, ASP^+ was added to reach a concentration of 1 μM, and the cells were incubated for 5 minutes in the dark. Imaging was performed with an Axiovert 200 M confocal microscope coupled to a Zeiss LSM 510 scanning device (Carl Zeiss, Oberkochen, Germany) using a Plan-Apochromat 63x/1.40 oil immersion objective. Draq5 was excited at 633 nm and fluorescence was detected using a 650 nm long-pass filter, ASP^+ was excited at 488 nm and detected using a 565/35 nm band-pass filter.

OCT3 [4] = target: T2, OCT3; assay: Confocal laser scanning microscopy of ASP+ uptake, HEK-OCT3; type: cell-based; settings: compound 5 15 μM; TPA 200 μM; ASP+ 1 μM
Method: as §4

OCT1 [5] = target: T1, OCT1; design: method as in PMID 15389554; settings: microtiter assay; cited from earlier work
OCT3 [6] = test system: OCT3; design: method as in PMID 23982114; settings: microtiter assay; cited from earlier work
OCT1 [7] = settings: cited from earlier work
OCT3 [8] = test system: OCT3; design: method as in PMID 23506881; settings: cited from earlier work

## CCCCC[N+](CCCCC)(CCCCC)CCCCC [TPA, tetrapentyl ammonium, reference compound]
OCT1 [1]
  IC50: 6.04 µM and 6 µM
OCT3 [2]
  IC50: 19.9 ± 2.2 µM
OCT1 [3]
  effect on OCT1 activity (ASP+ uptake, imaging): inhibited
OCT3 [4]
  effect on OCT3 activity (ASP+ uptake, imaging): inhibited
OCT1 [5]
  IC50: 7.9 µM
OCT3 [6]
  IC50: 28 µM

## N.N.[Cl][Pt][Cl] [cisplatin]
OCT1 [7]
  IC50: > 100 µM

## O=C1c2c(O)ccc(O)c2C(=O)c2c(NCCNCCO)ccc(NCCNCCO)c21 [mitoxantrone]
OCT3 [8]
  IC50: 440 µM
